US9353141B2, “Galectoside inhibitors of galectins” (GALECTO BIOTECH AB, priority 2012, dated 2016)
Where two headings read alike, the source gives them in different places.

Legend:
Assay in all cases: Fluorescence polarization-based galectin inhibition assay
Type in all cases: binding
galectin-3 = galectin-3 (Homo sapiens, UniProt P17931); settings: 20° C., tdga-probe 20 nM, galectin-3 200 nM, read-out: Calculated Kd Galectin 3
Description: (§1) Identification of the substances was made by HRMS (Micromass Q-tof micro) and NMR (Bruker Ultrashield 400 plus, 400 MHz). Chemical shifts are reported downfield from Me4Si using residual […] (7.26 ppm) or CHD2OD (3.35 ppm) as reference. Chemical shifts and coupling constants were obtained from ^1H-NMR and proton resonances were assigned from COSY experiments. Purification was made by RF-HPLC (Beckman, system gold) or flash chromatography, using silica gel (Davisil 35-70 μm, 60 Å). Reactions were followed by TLC (Aluminum sheet, silica gel 60 F254) visualized with UV light, H2SO4 (aq) or an iso-vanillin/H2SO4/EtOH development solution. THF and Et2O were dried over sodium/benzophenone and distilled. CH2Cl2 was dried by molecular sieves (4 Å, 1.6 mm). Other solvents and reagents were commercially available and used without further purifications. Fluorescence polarization experiments were performed on a PolarStar instrument (BMG, Offenburg; Germany). Evaluation of 20-34 as inhibitors of galectins was performed by use of fluorescence polarization as described in the literature (Sorme et al., 2003a, 2004). Galectin concentrations and fluorescent probe choice and concentrations were as described in Cumpstey et al. 2005a, except for galectin-3 for which the probe tdga-probe described in Salomonsson et al. 2010 was used at 20 nM together with galectin-3 at 200 nM concentrations. Each inhibitor was tested in duplicate at several concentrations between 4 and 0.25 μM. All fluorescence polarization experiments were conducted at 20° C., except galectin-7 for which experiments were conducted at 0° C.

[1] = target: T1, galectin-4 (C-terminal domain) (Homo sapiens, UniProt P56470); settings: 20° C., read-out: Calculated Kd Galectin 4 (C-terminal domain)
T1 sequence (P56470 194-323 limits assumed): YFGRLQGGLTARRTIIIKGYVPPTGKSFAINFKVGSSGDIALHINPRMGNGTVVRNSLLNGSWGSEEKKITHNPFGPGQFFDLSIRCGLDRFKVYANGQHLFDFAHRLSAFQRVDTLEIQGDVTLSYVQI
Description: as §1

[2] = target: galectin-9 (N-terminal domain) (Homo sapiens, UniProt O00182); settings: 20° C., read-out: Calculated Kd Galectin 9 (N-terminal domain)
galectin-9 (N-terminal domain), sequence (O00182 17-148 limits assumed, species assumed): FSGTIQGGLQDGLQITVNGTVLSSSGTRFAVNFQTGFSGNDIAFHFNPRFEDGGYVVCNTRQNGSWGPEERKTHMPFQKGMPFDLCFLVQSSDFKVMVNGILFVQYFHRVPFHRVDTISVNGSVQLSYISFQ
Description: as §1

[3] = target: T2, galectin-8 (N-terminal domain) (Homo sapiens, UniProt O00214); settings: 20° C., read-out: Calculated Kd Galectin 8 (N-terminal domain)
T2 sequence (O00214 19-152 limits assumed): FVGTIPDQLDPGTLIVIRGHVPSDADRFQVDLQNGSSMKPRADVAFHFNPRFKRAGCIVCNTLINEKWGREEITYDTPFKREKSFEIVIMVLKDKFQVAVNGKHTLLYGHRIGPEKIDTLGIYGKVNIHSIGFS
Description: as §1

[4] = target: T3, galectin-4 (N-terminal domain) (Homo sapiens, UniProt P56470)
T3 sequence (P56470 19-150 limits assumed): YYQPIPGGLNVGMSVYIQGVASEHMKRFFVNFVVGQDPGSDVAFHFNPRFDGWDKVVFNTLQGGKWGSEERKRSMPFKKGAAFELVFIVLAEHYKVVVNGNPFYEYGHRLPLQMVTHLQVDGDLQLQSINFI
Description: as §1

galectin-7 = galectin-7 (Homo sapiens, UniProt P47929); settings: 0° C., read-out: Calculated Kd Galectin 7
galectin-7, sequence (P47929 whole entry, species assumed): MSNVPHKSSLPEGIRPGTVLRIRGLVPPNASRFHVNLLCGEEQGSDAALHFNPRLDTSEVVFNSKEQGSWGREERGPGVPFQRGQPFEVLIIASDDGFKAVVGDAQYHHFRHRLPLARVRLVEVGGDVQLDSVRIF
Description: as §1

[5] = target: galectin-9 (C-terminal domain) (Homo sapiens, UniProt O00182); settings: 20° C., read-out: Calculated Kd Galectin 9 (C-terminal domain)
galectin-9 (C-terminal domain), sequence (O00182 227-355 limits assumed, species assumed): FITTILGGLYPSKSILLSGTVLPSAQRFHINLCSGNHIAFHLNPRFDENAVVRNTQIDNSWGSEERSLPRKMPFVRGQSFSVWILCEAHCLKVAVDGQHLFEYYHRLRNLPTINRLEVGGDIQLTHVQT
Description: as §1

galectin-1 = galectin-1 (Homo sapiens, UniProt P09382); settings: 20° C., read-out: Calculated Kd Galectin 1
galectin-1, sequence (P09382 whole entry, species assumed): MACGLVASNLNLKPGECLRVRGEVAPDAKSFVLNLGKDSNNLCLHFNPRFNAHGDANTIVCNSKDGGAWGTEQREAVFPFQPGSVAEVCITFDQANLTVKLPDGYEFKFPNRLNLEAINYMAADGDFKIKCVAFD
Description: as §1

[6] = fluorescence polarization, 20° C., read-out: Calculated Kd Galectin 4 (N-terminal domain)

galectin-3, sequence (P17931 whole entry, species assumed): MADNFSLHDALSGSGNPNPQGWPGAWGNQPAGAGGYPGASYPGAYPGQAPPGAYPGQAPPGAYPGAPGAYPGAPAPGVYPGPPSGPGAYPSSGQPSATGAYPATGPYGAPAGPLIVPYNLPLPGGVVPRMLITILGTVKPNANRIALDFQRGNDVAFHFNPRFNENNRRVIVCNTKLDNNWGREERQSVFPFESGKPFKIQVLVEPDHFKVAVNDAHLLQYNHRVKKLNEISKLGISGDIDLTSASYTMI

Row | SMILES | Kd (galectin-3) | Kd [1] | Kd [2] | Kd [3] | Kd [4] | Kd (galectin-7) | Kd [5] | Kd (galectin-1) | Kd [4, 6]
1 | O=c1oc2cc(Cl)ccc2cc1CO[C@H]1[C@@H](O)[C@@H](CO)O[C@@H](S[C@@H]2O[C@H](CO)[C@H](O)[C@H](OCc3cc4ccc(Cl)cc4oc3=O)[C@H]2O)[C@@H]1O [Compound 21, bis-{3-O-[(7-chloro-2H-1-benzopyran-2-on-3-yl)-methyl]-β-D-galactopyranosyl}sulfane] | 4.7 µM | – | 140 µM | 74 µM | – | 61 µM | – | 21 µM | –
2 | O=c1oc2ccc(O)cc2cc1COC1C(O)[C@H](S[C@@H]2OC(CO)[C@H](O)C(OCc3cc4cc(O)ccc4oc3=O)C2O)OC(CO)[C@@H]1O (stereo partly drawn) [Compound 24, bis-{3-O-[(6-hydroxy-2H-1-benzopyran-2-on-3-yl)-methyl]-β-D-galactopyranosy}sulfane] | 0.15 µM | > 300 µM | 8.9 µM | 140 µM | – | – | – | 20 µM | 180 µM
3 | O=c1oc2ccc3ccccc3c2cc1CO[C@H]1[C@@H](O)[C@@H](CO)O[C@@H](S[C@@H]2O[C@H](CO)[C@H](O)[C@H](OCc3cc4c(ccc5ccccc54)oc3=O)[C@H]2O)[C@@H]1O [Compound 25, bis-{3-O-[(3H-naphtho[2,1-b]pyran-3-on-2-yl)-methyl]-β-D-galactopyranosyl}sulfane] | 0.51 µM | > 300 µM | 4.7 µM | > 300 µM | – | – | – | 22 µM | 110 µM
4 | CC(C)(C)c1ccc2oc(=O)c(COC3C(O)[C@H](S[C@@H]4OC(CO)[C@H](O)C(OCc5cc6cc(C(C)(C)C)ccc6oc5=O)C4O)OC(CO)[C@@H]3O)cc2c1 (stereo partly drawn) [Compound 26, bis-{3-O-[(6-tert-butyl-2H-1-benzopyran-2-on-3-yl)-methyl]-β-D-galactopyranosy}sulfane] | 8.1 µM | > 1000 µM | 39 µM | 62 µM | – | – | 17 µM | 25 µM | > 1000 µM
5 | O=c1oc2ccc(Cl)cc2cc1COC1C(O)[C@H](S[C@@H]2OC(CO)[C@H](O)C(OCc3cc4cc(Cl)ccc4oc3=O)C2O)OC(CO)[C@@H]1O (stereo partly drawn) [Compound 27, bis-{3-O-[(6-chloro-2H-1-benzopyran-2-on-3-yl)-methyl]-β-D-galactopyranosy}sulfane] | 6 µM | 100 µM | > 200 µM | 34 µM | – | – | 86 µM | 7.9 µM | 430 µM
6 | O=c1oc2ccc(F)cc2cc1CO[C@H]1[C@@H](O)[C@@H](CO)O[C@@H](S[C@@H]2O[C@H](CO)[C@H](O)[C@H](OCc3cc4cc(F)ccc4oc3=O)[C@H]2O)[C@@H]1O [Compound 28, Bis-{3-O-[(6-fluoro-2H-1-benzopyran-2-on-3-yl)-methyl]-β-D-galactopyranosyl}sulfane] | 0.097 µM | > 1000 µM | 3.5 µM | 47 µM | – | – | 7.9 µM | 3.4 µM | 180 µM
7 | O=c1oc2cccc(Cl)c2cc1CO[C@H]1[C@@H](O)[C@@H](CO)O[C@@H](S[C@@H]2O[C@H](CO)[C@H](O)[C@H](OCc3cc4c(Cl)cccc4oc3=O)[C@H]2O)[C@@H]1O [Compound 30, bis-{3-O-[(5-chloro-2H-1-benzopyran-2-on-3-yl)-methyl]-β-D-galactopyranosyl}sulfane] | 0.17 µM | > 1000 µM | 54 µM | 28 µM | – | – | 16 µM | 25 µM | 55 µM
8 | O=c1oc2cccc(F)c2cc1CO[C@H]1[C@@H](O)[C@@H](CO)O[C@@H](S[C@@H]2O[C@H](CO)[C@H](O)[C@H](OCc3cc4c(F)cccc4oc3=O)[C@H]2O)[C@@H]1O [Compound 31, Bis-{3-O-[(5-fluoro-2H-1-benzopyran-2-on-3-yl)-methyl]-β-D-galactopyranosyl}sulfane] | 0.061 µM | 540 µM | 7 µM | 28 µM | – | – | 5.5 µM | 8.7 µM | 46 µM
9 | O=c1oc2ccc(OC(F)(F)F)cc2cc1COC1C(O)[C@H](S[C@@H]2OC(CO)[C@H](O)C(OCc3cc4cc(OC(F)(F)F)ccc4oc3=O)C2O)OC(CO)[C@@H]1O (stereo partly drawn) [Compound 33, bis-{3-O-[(6-trifluoromethoxy-2H-1-benzopyran-2-on-3-yl)-methyl]-β-D-galactopyranosy}sulfane] | 0.95 µM | > 500 µM | 29 µM | 110 µM | – | – | 21 µM | 84 µM | > 500 µM
10 | Cc1ccc2cc(COC3C(O)[C@H](S[C@@H]4OC(CO)[C@H](O)C(OCc5cc6ccc(C)cc6oc5=O)C4O)OC(CO)[C@@H]3O)c(=O)oc2c1 (stereo partly drawn) [Compound 34, bis-{3-O-[(7-methyl-2H-1-benzopyran-2-on-3-yl)-methyl]-β-D-galactopyranosy}sulfane] | 9.4 µM | > 500 µM | > 200 µM | > 700 µM | – | – | > 500 µM | 200 µM | > 500 µM
11 | CO[C@@H]1OC(CO)[C@H](O)C(O)C1O (stereo partly drawn) [methyl β-D-galactoside, reference compound] | – | – | 3400 µM | – | – | 4800 µM | 5000 µM | – | –

Compounds with a lower Kd [2], results first:

Row | Kd (galectin-3) | Kd [1] | Kd [2] | Kd [3] | Kd [4] | Kd (galectin-7) | Kd [5] | Kd (galectin-1) | Kd [4, 6] | SMILES
12 | 0.25 µM | 156 µM | 1.7 µM | 11 µM | 49 µM | 3.9 µM | 2.4 µM | 15.4 µM | – | O=c1oc2ccccc2cc1CO[C@H]1[C@@H](O)[C@@H](CO)O[C@@H](S[C@@H]2O[C@H](CO)[C@H](O)[C@H](OCc3cc4ccccc4oc3=O)[C@H]2O)[C@@H]1O [Compound 20, bis-{3-O-[(2H-1-benzopyran-2-on-3-yl)-methyl]-β-D-galactopyranosyl}sulfane]
13 | 0.076 µM | > 300 µM | 1.5 µM | 40 µM | – | – | – | 3.9 µM | 32 µM | O=c1oc2cc(O)ccc2cc1COC1C(O)[C@H](S[C@@H]2OC(CO)[C@H](O)C(OCc3cc4ccc(O)cc4oc3=O)C2O)OC(CO)[C@@H]1O (stereo partly drawn) [Compound 23, bis-{3-O-[(7-hydroxy-2H-1-benzopyran-2-on-3-yl)-methyl]-β-D-galactopyranosy}sulfane]
14 | 0.11 µM | 220 µM | 3 µM | 19 µM | – | – | 2.3 µM | 1.6 µM | 44 µM | O=c1oc2cc(F)c(F)cc2cc1COC1C(O)[C@H](S[C@@H]2OC(CO)[C@H](O)C(OCc3cc4cc(F)c(F)cc4oc3=O)C2O)OC(CO)[C@@H]1O (stereo partly drawn) [Compound 29, bis-{3-O-[(6,7-difluoro-2H-1-benzopyran-2-on-3-yl)-methyl]-β-D-galactopyranosy}sulfane]
15 | 0.032 µM | > 500 µM | 1.1 µM | 41 µM | – | – | 1.5 µM | 3.9 µM | 22 µM | O=c1oc2ccc(F)c(F)c2cc1CO[C@H]1[C@@H](O)[C@@H](CO)O[C@@H](S[C@@H]2O[C@H](CO)[C@H](O)[C@H](OCc3cc4c(F)c(F)ccc4oc3=O)[C@H]2O)[C@@H]1O [Compound 32, Bis-{3-O-[(5,6-difluoro-2H-1-benzopyran-2-on-3-yl)-methyl]-β-D-galactopyranosyl}sulfane]
16 | 10.7 µM | – | 2.8 µM | – | – | 48 µM | – | 14.7 µM | – | O=C(OC1C(O)[C@H](S[C@@H]2OC(CO)[C@H](O)C(OC(=O)c3ccc4ccccc4c3)C2O)OC(CO)[C@@H]1O)c1ccc2ccccc2c1 (stereo partly shown) [Compound 35, reference compound]
17 | 0.16 µM | – | 0.73 µM | > 100 µM | – | 1.7 µM | – | 9.6 µM | – | O=C(NC1C(O)[C@H](S[C@@H]2OC(CO)[C@H](O)C(NC(=O)c3ccc4ccccc4c3)C2O)OC(CO)[C@@H]1O)c1ccc2ccccc2c1 (stereo partly shown) [Compound 36, reference compound]
